Data on six molecules can be found in patent publication US20050260683A1, “Methods for diagnosing and treating pre-term labor” (University of Hawaii, priority 2002, published 2005).

Entries after “also recorded” stand apart in the source; their conditions may differ. Where two headings read alike, the source gives them in different places.

The subject of test [1] is PBEF gene expression in WISH cells. Kind of test: PBEF gene expression in IL-1β-stimulated WISH cells with inhibitors, real-time PCR. It is filed as cell-based, human. The note with it: IL-1β 1 ng/ml; for effect on IL-1β-induced up-regulation of PBEF: inhibitor over a range of dilutions. The procedure:
(§1) Thus, the human anmiotic epithelial-like cell line (WISH) was stimultated by addition of IL-1β (1 ng/ml) or by stretching (20%). In order to show any inhibitory effects on the expression of PBEF, a panel of inhibitors (SN50, Curcumin and PDTC) were added over a range of dilutions to both systems. Gene expression was quantitated by real-time PCR and normalized to 18 s.
For orientation: Quantitative PCR measures a nucleic acid by following its amplification.

Test [2] has as its system IL-6. The conditions noted are these: Keelan et al.; cited from earlier work.
Test [3] deals with IL-8. The conditions noted are these: Keelan et al.; Laham et al.; cited from earlier work.
The subject of test [4] is NF-κB. In words: NF-κB translocation in WISH cells, anti-p65 immunolabeling. In kind it is cell-based, human. The conditions noted are these: after addition of IL-1β. The protocol:
as §1
Peak translocation of NF-κB from the cytoplasm to the nucleus occurred one hour after addition of IL-1β and was clearly seen by immunolabeling with an antibody (anti-p65) to one of the subunits of NF-κB. Increased PBEF gene expression also resulted from IL-1β stimulation.

For test [5], the system named is PBEF gene expression. The note with it: Ognjanovic et al., cited from earlier work.

Regarding `COc1cc(/C=C/C(=O)CC(=O)/C=C/c2ccc(O)c(OC)c2)ccc1O` [Curcumin], the “effect on IL-1β-induced up-regulation of PBEF” value in test [1] is listed as “prevented the up-regulation of PBEF to varying degrees”.
`S=C(S)N1CCCC1` [PDTC]: the “effect on IL-1β-induced up-regulation of PBEF” value in test [1] is given as “prevented the up-regulation of PBEF to varying degrees”.
For “IL-1β: proinflammatory cytokine interleukin-1-beta”, the IL-6 transcription entry in test [2] was “stimulate”. Also, the “PBEF gene expression after stimulation” value in test [1] is reported as “Increased”. For the same molecule, the IL-8 transcription entry in test [3] is on record as “stimulate”. For the same molecule, the “time of peak translocation of NF-κB from the cytoplasm to the nucleus” value in test [4] is “one hour”. The “PBEF gene expression / transcription” value in test [5] was “stimulate; also recorded: induced”.
On to IL-6: cytokine interleukin-6, for which the “PBEF gene expression / transcription” value in test [5] is “induced”.
In the case of IL-8: cytokine interleukin-8, the “PBEF gene expression / transcription” value in test [5] is listed as “no such effect”.
On to TNF-α, for which, in test [2], the IL-6 transcription entry was “stimulate”. Also, in test [3], the IL-8 transcription entry is “stimulate”. Moreover, the “PBEF gene expression / transcription” value in test [5] was “induced”; in test [5] (listed as TNF-A), “stimulate”.
